Target: T1, His-hSHIP1 enzyme (Homo sapiens, UniProt Q92835)
T1 construct: His
T1 sequence (Q92835 1-1189): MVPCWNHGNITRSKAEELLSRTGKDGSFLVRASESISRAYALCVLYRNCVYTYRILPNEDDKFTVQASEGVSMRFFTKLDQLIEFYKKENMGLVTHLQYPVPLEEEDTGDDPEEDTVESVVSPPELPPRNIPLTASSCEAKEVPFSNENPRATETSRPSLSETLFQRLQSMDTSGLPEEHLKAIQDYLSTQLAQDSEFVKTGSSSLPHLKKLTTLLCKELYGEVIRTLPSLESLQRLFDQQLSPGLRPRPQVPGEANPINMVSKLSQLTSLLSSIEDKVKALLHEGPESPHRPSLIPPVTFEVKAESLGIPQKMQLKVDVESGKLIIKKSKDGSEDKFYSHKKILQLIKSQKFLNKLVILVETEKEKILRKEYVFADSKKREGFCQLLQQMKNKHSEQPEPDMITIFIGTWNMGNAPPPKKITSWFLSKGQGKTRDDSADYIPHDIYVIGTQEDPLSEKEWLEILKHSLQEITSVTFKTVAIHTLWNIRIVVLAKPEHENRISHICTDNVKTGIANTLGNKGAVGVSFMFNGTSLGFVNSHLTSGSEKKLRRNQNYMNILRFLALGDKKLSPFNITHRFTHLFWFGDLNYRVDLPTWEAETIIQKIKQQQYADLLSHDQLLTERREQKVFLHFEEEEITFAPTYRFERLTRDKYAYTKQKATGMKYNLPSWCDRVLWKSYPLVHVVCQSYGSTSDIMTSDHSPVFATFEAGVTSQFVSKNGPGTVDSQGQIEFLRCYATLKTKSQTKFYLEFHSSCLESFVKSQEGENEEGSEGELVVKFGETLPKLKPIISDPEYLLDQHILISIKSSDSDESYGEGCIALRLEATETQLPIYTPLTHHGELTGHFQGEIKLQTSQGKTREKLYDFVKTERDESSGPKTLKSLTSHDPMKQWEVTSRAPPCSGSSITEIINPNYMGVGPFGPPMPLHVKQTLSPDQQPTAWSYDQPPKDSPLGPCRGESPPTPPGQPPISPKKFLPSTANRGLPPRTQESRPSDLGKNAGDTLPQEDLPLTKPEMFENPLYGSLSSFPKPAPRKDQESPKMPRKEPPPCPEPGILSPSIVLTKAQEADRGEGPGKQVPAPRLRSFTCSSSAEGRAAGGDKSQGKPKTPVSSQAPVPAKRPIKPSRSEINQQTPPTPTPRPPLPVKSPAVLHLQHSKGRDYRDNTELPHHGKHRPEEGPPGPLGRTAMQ
Test: His-hSHIP1 activity, approach 1 (phosphate release from IP4, Biomol Green)
Format: biochemical
Conditions: activation of His-hSHIP1; IP4 50 μM; test compound 0-300 μM; no asterisk in Table 2
Experimental: Test compounds are dissolved in 95% ethanol to form stock solutions. Before screening, the stock solutions are diluted with Phosphatase Assay Buffer (20 mM Tris-HCL, 10 mM MgCl2 pH 7.5, 0.02% Tween 20) to form working assay solutions that contain 10% ethanol. The assay is carried out on 96-well microtiter plates using a modified procedure of that reported by Ong et al., Blood 110, 1942-1949, 2007 and Yang et al., Org Lett 7, 1073-1076, 2005, both of which references are incorporated herein by reference in their entirety.
Data were generated by one of two variant methods. Test compounds are screened by one of two approaches described as follows. In the first approach, each reaction contains 5 μL of His-hSHIP1 enzyme (5-20 ng), 10 μL of the substrate, 1,3,4,5-inositol tetrakisphosphate (IP4; 50 μM final), 5 μL of Phosphatase Assay Buffer, and 5 µL of test compound at various concentrations in 10% ethanol (0-300 μM final). Control blanks are also prepared by replacing His-hSHIP1 enzyme, IP4, or test compounds with Phosphatase Assay Buffer. After adding the reaction components in a 96-well microtiter plate on ice, the reaction is mixed by briefly shaking the plate vigorously. The reaction is then incubated at 37° C. for 15 min with gentle shaking followed by addition of 100 μL of Biomol Green Reagent (BIOMOL, Pa., USA) to terminate the reaction. The free phosphate released from IP4 by His-hSHIP1 binds to the Biomol Green Reagent, which turns the dye to green color. After incubating the mixture for 20 min at room temperature for color development, the absorbance is read with SpectraMax Plus 96-well plate reader (Molecular Devices, Sunnyvale, Calif., USA) at a wavelength of 650 nm.

Scoring, Approach 1 (% increase relative to background), + (0 < x < 50):
COc1cc(C)cc(C(=O)[C@H]2[C@@H](C)[C@H](O)C[C@H]3C(C)(C)CCC[C@]23C)c1 [Compound No. 6, (2R,3R,4S,4aS,8aS)-4-[(3-methoxy-5-methylphenyl)carbonyl]-3,4a,8,8-tetramethyl-decahydronaphthalen-2-ol]
Cc1cc(O)cc(C(=O)[C@H]2[C@H](C)C(=O)C[C@H]3C(C)(C)CCC[C@]23C)c1 [Compound No. 8, (3S,4S,4aS,8aS)-4-[(3-hydroxy-5-methylphenyl)carbonyl]-3,4a,8,8-tetramethyl-decahydronaphthalen-2-one]
Cc1cc(O)cc(C(=O)C2[C@@H](C)[C@H](O)C[C@H]3C(C)(C)CCC[C@]23C)c1 (stereo partly drawn) [Compound No. 9, (2R,3R,4aS,8aS)-4-[(3-hydroxy-5-methylphenyl)carbonyl]-3,4a,8,8-tetramethyl-decahydronaphthalen-2-ol]
Cc1cc(O)cc(C(=O)[C@H]2[C@H](C)C(O)C[C@H]3C(C)(C)CCC[C@]23C)c1 (stereo partly drawn) [Compound No. 23, (3S,4S,4aS,8aS)-4-[(3-hydroxy-5-methylphenyl)carbonyl]-3,4a,8,8-tetramethyl-decahydronaphthalen-2-ol]
COc1cc(C)cc(OC[C@H]2C(C)C(O)C[C@H]3C(C)(C)CCC[C@]23C)c1 (stereo partly drawn) [Compound No. 30, (4S,4aS,8aS)-4-(3-methoxy-5-methylphenoxymethyl)-3,4a,8,8-tetramethyl-decahydronaphthalen-2-ol]
COc1cc(O)cc(NC(=O)C2=C(C)CC[C@H]3C(C)(C)CCC[C@]23C)c1 [Compound No. 42, (4aS,8aS)-N-(3-hydroxy-5-methoxyphenyl)-2,5,5,8a-tetramethyl-3,4,4a,5,6,7,8,8a-octahydronaphthalene-1-carboxamide]
CC1=C(C(=O)Nc2cc(O)cc(O)c2)[C@@]2(C)CCCC(C)(C)[C@@H]2CC1 [Compound No. 43, (4aS,8aS)-N-(3,5-dihydroxyphenyl)-2,5,5,8a-tetramethyl-3,4,4a,5,6,7,8,8a-octahydronaphthalene-1-carboxamide]

Scoring, Approach 1 (% increase relative to background), ++ (50 ≤ x < 65):
CC1=CC[C@H]2C(C)(C)CCC[C@]2(C)C1C(=O)c1cc(C)cc(O)c1 (stereo partly drawn) [Compound No. 4, 3-{[(4aS,8aS)-2,5,5,8a-tetramethyl-1,4,4a,5,6,7,8,8a-octahydronaphthalen-1-yl]carbonyl}-5-methylphenol]
Cc1cc(O)cc(C[C@H]2[C@@H](CO)CC[C@H]3C(C)(C)CCC[C@]23C)c1 [Compound No. 17, 3-{[(1S,2S,4aS,8aR)-2-(hydroxymethyl)-5,5,8a-trimethyl-decahydronaphthalen-1-yl]methyl}-5-methylphenol]
COc1cc(C)cc(OC[C@@H]2[C@@]3(C)CCCC(C)(C)[C@@H]3CC[C@@]2(C)O)c1 [Compound No. 27, (1S,2R,4aS,8aS)-1-(3-methoxy-5-methylphenoxymethyl)-2,5,5,8a-tetramethyl-decahydronaphthalen-2-ol]

Scoring, Approach 1 (% increase relative to background), +++ (x ≥65):
COc1cc(C)cc(C(=O)[C@H]2[C@H](C)C(NCCCN)C[C@H]3C(C)(C)CCC[C@]23C)c1.Cl.Cl (stereo partly drawn) [Compound No. 11, (3S,4S,4aS,8aS)-N-(3-aminopropyl)-4-[(3-methoxy-5-methylphenyl)carbonyl]-3,4a,8,8-tetramethyl-decahydronaphthalen-2-amine dihydrochloride]
CC1=CC[C@H]2C(C)(C)CCC[C@]2(C)[C@H]1COc1cc(C)cc(O)c1 [Compound No. 29, 3-{[(1S,4aS,8aS)-2,5,5,8a-tetramethyl-1,4,4a,5,6,7,8,8a-octahydronaphthalen-1-yl]methoxy}-5-methylphenol]

From patent publication US10272081B2, “SHIP1 modulators and methods related thereto” (Aquinox Pharmaceuticals (Canada) Inc., priority 2013, dated 2019)
